The results in this text go back to US5770434A, “Soluble peptides having constrained, secondary conformation in solution and method of making same” (IXSYS Incorporated, priority 1995, dated 1998).

In data set [1] the test system is ligand-binding protein (in this example, an antibody). Put plainly: Panning of phage-displayed peptide library against a ligand-binding protein (antibody), protein A-coated dishes. Particulars: phage-expressed peptide, compared with the general phage population.
Data set [2] can be described thus: Solubility of the secreted expressed peptide. The text has this:
The oligonucleotide encoding this peptide is cloned into a vector that allowed secretion of the expressed peptide. The peptide […]

As for “TQSKCSTDHWLGYIEYFIMCTY [SEQ. ID. NO.: 62]”, the ligand binding affinity result in data set [1] is reported as “highest affinity”. For the same sequence, the “soluble at a concentration of” value in data set [2] is at least 4 mg/mL. Turning to “CDDQYYTDHEQGKCEVALYYTG [SEQ. ID. NO.: 63, peptide selected from phage library]”, the ligand binding affinity result in data set [1] is “high affinity”.
